Assay results from US20050112128A1, “Inhibition of protein kinase c-mu (PKD) as a treatment for cardiac hypertrophy and heart failure” (Myogen, Inc. and Board of Regents, The University of Texas …, priority 2003, published 2005).
Entries after “also recorded” stand apart in the source; their conditions may differ.

What was measured:
[1] = test system: nuclear export of HDAC5 in COS cells; assay: GFP-HDAC5 nuclear export in transfected COS cells (fluorescence microscopy); format: cell-based
Procedure: (§1) FIGS. 1A-D—PKC-dependent nuclear export of HDAC5. FIG. 1A. COS cells were cultured on 6-well dishes, transfected with a GFP-HDAC5 expression vector (1 μg) and stimulated with the indicated compounds, as described in Materials and Methods. Sixty minutes after addition of compounds, GFP-HDAC5 distribution was determined by fluorescence microscopy. […] FIG. 1B. COS cells were transfected with expression vectors encoding FLAG-tagged versions of either HDAC5 or an HDAC5 mutant harboring alanines in place of serines 259 and 498 (HDAC5 S259/498A) (1 μg each). Cells were stimulated with PMA for 60 min and HDAC5 distribution was determined by indirect immunofluorescence with anti-FLAG primary antibody and fluorecein-conjugated secondary antibody. HDAC5 259/498A is refractory to PMA stimulation. FIG. 1C. COS cells transfected with GFPHDAC5 encoding expression vector (1 μg) and stimulated with PMA for the indicated times. FIG. 1D. COS cells were transiently transfected with expression vectors encoding FLAG-tagged versions of HDAC5 or HDAC5 S259/498A (1 μg each). Cells were pretreated with the PKC inhibitor bisindolylmaleimide (Bis I; 10 μM) for 30 minutes and stimulated with PMA for 30 min, as indicated. Association of FLAG-HDAC5 with endogenous 14-3-3 was detected by sequential immunoprecipitation and immunoblotting.
Cell culture and transfection assays. COS cells were maintained in DMEM with FBS (10%), L-glutamine (2 mM), and penicillin-streptomycin. Transfection of COS cells was performed with Fugene 6 (Roche Molecular Biochemicals) according to manufacturer's instructions. For HDAC localization experiments, cells were treated 16-24 hours after transfection with PMA (100 nM), ionomycin […], 8-Br-cAMP (1 mM), pCPT-GMP (1 mM), or anisomycin (1 mM). Where noted, specific protein kinase inhibitors were added 30 min prior to the addition of any chemical stimulus. GFP-HDAC5 was visualized with standard fluorescent microscopic techniques. For indirect immunofluorescence of FLAG-HDAC5, COS cells were seeded on glass coverslips, transfected, and treated as above. After specific treatment, cells were fixed with buffered formalin (10%) and stained in PBS containing BSA (3%) and Nonidet P-40 (0.1%). Flag M2 antibody (Sigma) was used at a concentration of 1:200. Secondary fluoresceine-conjugated antibody (Vector Laboratories) was also used at a concentration of 1:200. Staining of cardiomyocytes for sarcomeres and atrial natriuretic factor (ANF) was performed by indirect immunofluorescence detection as above with antibodies directed against sarcomeric α-actinin (Sigma) and ANF (Peninsula Laboratories), respectively.

[2] = test system: association of 14-3-3 with HDAC5; assay: Co-immunoprecipitation of FLAG-HDAC5 with endogenous 14-3-3 in COS cells; format: cell-based; settings: FLAG-HDAC5, PMA 30 min
Procedure: as §1, with “COS cells were transiently transfected with expression vectors encoding FLAG-tagged versions of HDAC5 or HDAC5 S259/498A (1 μg each). Cells were pretreated with the PKC inhibitor bisindolylmaleimide (Bis I; 10 μM) for 30 minutes and stimulated with PMA for 30 min, as indicated.” left out
Co-immunoprecipitation assays. […] Associated PKD was detected by immunoblotting with rabbit polyclonal antibodies against either PKD-1, PKD-1 phosphorylated at serines 744 and 748, or PKD-1 phosphorylated at serine 916 (Cell Signaling Technologies) were employed at 1:1000 dilutions.

NRVMs = assay: ANF immunostaining of cardiomyocytes (hypertrophy marker); format: cell-based, rat; settings: PE 20 μM or PMA 100 nM, 24 hrs
Procedure: FIGS. 3A-C—Inhibition of PKC-mediated cardiac hypertrophy by signalresistant HDAC5. NRVMs were cultured on 6-well dishes and infected with adenoviruses (MOI=10) encoding a LacZ control (Ad-LacZ) or FLAG-tagged HDAC5 harboring alanines in place of serines 259 and 498 (Ad-HDAC5 S/A), which are required for 14-3-3-mediated nuclear export. Cells were treated with PE (20 μM) or PMA (100 nM) for 24 hrs prior to analysis. FIG. 3A. Cells were fixed and sarcomeres visualized by indirect immunofluorescence with primary antibody specific for α-actinin and fluorescein-conjugated secondary antibody. FIG. 3B. ANF protein was detected by indirect immunofluorescence with anti-ANF primary antibody. FIG. 3C. Total RNA was harvested from cells and subjected to dot blot analysis with radiolabeled oligonucleotides specific for the indicated transcripts. RNA levels were quantified using a phosphorimager and are depicted as -fold change relative to amounts in unstimulated cells infected with Ad-LacZ. Values were normalized to GAPDH controls.
Cell culture and transfection assays. COS cells were maintained in DMEM with FBS (10%), L-glutamine (2 mM), and penicillin-streptomycin. Transfection of COS cells was performed with Fugene 6 (Roche Molecular Biochemicals) according to manufacturer's instructions. […]

HDAC5-bound PKD = format: biochemical, rat; settings: NRVMs infected with Ad-FLAG-HDAC5; PMA 30 min
PKD = assay: In vitro kinase assay with FLAG-HDAC5 immunoprecipitated from COS cells co-transfected with PKD; format: cell-based; settings: PMA 30 min
Description: FIGS. 5A-E—Protein kinase D is an HDAC5 kinase. FIG. 5A. Amino acid sequences surrounding the regulatory phosphorylation sites of class II HDACs. NLS: nuclear localization signal; HDAC domain: deacetylase catalytic domain. The consensus target site for PKD is shown. Leucine at position −5 relative the phosphorylation site is required for optimal PKD-directed phosphorylation of other proteins. FIG. 5B. COS cells were transfected with an expression vector encoding GFP fused to HDAC5 harboring glycines in place of leucines 254 and 493 (L254/493G). Twenty-four hrs post-transfection, cells were left untreated (control) or stimulated with PMA for 30 minutes. FIG. 5C. […] HDAC5 localization was determined 24 hrs post-transfection. FIG. 5D. […] Twenty-four hrs post-transfection, cells were treated with PMA or vehicle control for 30 min. FLAG-HDAC5 was immunoprecipitated from whole-cell protein lysates and either incorporated into an in vitro kinase assay (IVK) or resolved by SDS-PAGE for western blot analysis to detect associated PKD, as indicated. Phosphorylated HDAC5 was resolved by SDS-PAGE and detected by autoradiography. FIG. 5E. Mammalian two-hybrid assay. […]

With `CCCCCCCCCCCCCC(=O)O[C@@H]1[C@@H](C)[C@@]2(O)[C@@H](C=C(CO)C[C@]3(O)C(=O)C(C)=C[C@@H]23)[C@@H]2C(C)(C)[C@]12OC(C)=O` [PMA, Phorbol 12-myristate 13-acetate] the “stimulation of nuclear export of GFP-HDAC5” value ([1]; COS cells transfected with GFP-HDAC5, 60 min after addition of compounds) was “complete relocalization of GFP-HDAC5 from the nucleus to the cytoplasm; also recorded: stimulated nuclear export of GFP-HDAC5; also recorded: more potent stimulator of export than ionomycin”, the “time to complete HDAC5 nuclear export following addition of PMA” value ([1]; COS cells, GFP-HDAC5) was ≤ 30 min and the “time to initiation of HDAC5 nuclear export following addition of PMA” value ([1]; COS cells, GFP-HDAC5) was ≤ 15 min. For the same molecule, the “association of 14-3-3 with HDAC5” value [2] was “enhanced”, the ANF protein expression (NRVMs) was “prominent perinuclear ANF protein expression” and the “HDAC5 phosphorylation after treatment of cells with PMA” value (HDAC5-bound PKD) was “Increased HDAC5 phosphorylation”. For the same molecule, the “HDAC5 phosphorylation after PMA, activated PKD S/E co-transfected” value (PKD; FLAG-HDAC5 + PKD S/E) was “enhanced phosphorylation of HDAC5” and the “HDAC5 phosphorylation after PMA, wild-type PKD co-transfected” value (PKD; FLAG-HDAC5 + PKD) was “increased the degree of HDAC5 phosphorylation”.
